Results on eleven compounds are retold here after patent US5510240A, “Method of screening a peptide library” (The Arizona Board of Regents, priority 1993, dated 1996).

Where no end group is shown, it is not given here.

One series relates to anti-β-endorphin MAb. Description: bead library screening with biotinylated anti-β-endorphin MAb and streptavidin-alkaline phosphatase. The series is classed as binding. The note with it: recycled pentapeptide library, 16 hours. Here is the method:
Prior to using the same random peptide library to screen with anti-β-endorphin MAb, all the blue beads that had stained for streptavidin-alkaline phosphatase alone were removed. The remaining beads were then treated with 8M guanidine hydrochloride to remove any bound protein. This recycled library was then mixed with biotinylated anti-β-endorphin MAb (anti-β-endorphin, clone 3-E7, was obtained commercially from Boehringer Mannheim, Indianapolis, Ind.) for 16 hours. After extensive washing, a secondary step with streptavidin-alkaline phosphatase was used to trigger the staining reaction for the ELISA. […] Peptide analogues with various carboxyl terminus of these ligand leads were synthesized and their affinity (Ki) was determined using ^3 H!Leu-enkaphalin (New England Nuclear, Boston, Mass.) as the labelled ligand and the unlabelled peptides as the competing ligand (anti-β-endorphin assay, Section 10.1.2, supra).

A further series deals with anti-v-mos. The conditions noted are these: known property of the commercial antibody; cited from earlier work.
A short description of series [1]: UV/VIS irradiation cleavage of ONb linker peptides, HPLC analysis. The note with it: in water. Type of series: physicochemical. Here is the method:
Each peptide was irradiated for 1 and 3 hours with ultraviolet (UV) and visible (VIS) light in 0.3 ml of water or 3/7 mixture of chloroethanol:dichloromethane. A total of 16+16 experiments were run and assayed.
After exposure the supernatant was filtered off, lyophilized and re-dissolved to equal volumes of MeOH (0.3 ml). The products were analyzed on the HPLC.

Series [2] is described as follows: peptide-bead reduction of nitro blue tetrazolium without exogenous enzyme. The series is classed as biochemical. The conditions noted are these: absence of exogenous enzyme. The text has this: The peptide library was exposed to the chromogenic substrate nitro blue tetrazolium (NBT) chloride in the absence of exogeneous enzyme under conditions conducive to product formation, and positive reacting beads were identified. These beads were selected and sequenced.

Another series concerns the target T1, streptavidin (Streptomyces avidinii, UniProt P22629).
T1 construct: purchased Pierce, Rockford, Ill
Description: biotin inhibition of LHPQF-resin staining by streptavidin-alkaline phosphatase. The series is classed as binding. As for the experimental part:
FIG. 8. […] A: 100 nM; B: 10 nM; C: 1 nM; and D: 0.1 nM biotin. Blank beads (β-Ala-aminocaproic acid-resin) were mixed 1:1 with the LHPQF-resin prior to incubating with streptavidin-alkaline phosphatase to serve as an internal negative control.
The LHPQF-resin was then mixed with streptavidin-alkaline phosphatase in the presence of varying concentration of biotin. […] The inhibition study establishes that the HPQ consensus sequence binds to the biotin-binding site of streptavidin.

Series [3] has as its system anti-v-mos monoclonal antibody. Description: bead staining with anti-v-mos monoclonal antibody. Type of series: binding, mouse. The conditions noted are these: antibody 1 ug/ml; ABTS substrate with H2O2, 15 minutes. Here is the method:
The long v-mos beads were mixed with a thousand fold excess of the short v-mos beads. Two milliliters of the purified anti-v-mos monoclonal antibody (1 μg/ml) in PBS with 0.1% polyoxyethylenesorbitan monolaurate (TWEEN 20®) was added to the mixture of long and short v-mos beads and incubated at room temperature for one hour with gentle mixing. The beads were then washed for one hour with gentle mixing. The beads were then washed on a small polypropylene disposable column (obtained from Isolab) where the beads were retained by the frit. The beads were then mixed with 2 ml of a secondary antibody at 1:2000 dilution for one hour. After washing, the beads were poured into a polystyrene petri dish and allowed to settle. […]
The beads were washed on a small polypropylene disposable column (obtained from Isolab) which retained the beads on a frit. […] The v-mos beads were readily distinguished.
Approximately 230,000 beads were screened with an anti-v-mos alkaline phosphatase conjugate. […] Twenty-four of these beads were physically selected out and the amino acid sequence of eleven of them was determined. […]

T1 sequence (P22629 25-183, species assumed): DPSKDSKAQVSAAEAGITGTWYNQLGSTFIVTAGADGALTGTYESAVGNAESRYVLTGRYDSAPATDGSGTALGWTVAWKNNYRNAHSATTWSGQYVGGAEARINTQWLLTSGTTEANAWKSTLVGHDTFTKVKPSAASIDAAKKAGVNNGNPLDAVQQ

In the case of “YGGFA (not fully specified) [tested with carboxyl terminus OH, NH2, βA-OH, βA-NH2]”, the “identification as ligand in anti-β-endorphin MAb bead screening” value (“identification as ligand” below) with anti-β-endorphin MAb was “identified”.

With “YGGFQ (not fully specified) [tested with carboxyl terminus OH, NH2, βA-OH, βA-NH2]”, the “identification as ligand” value in the series on anti-β-endorphin MAb was “identified”. For the compound “YGGMV (not fully specified) [tested with carboxyl terminus OH, NH2, βA-OH, βA-NH2]”, the “identification as ligand” value in the series on anti-β-endorphin MAb is recorded as “identified”. The same measure, in the same setting: the result for “YGGLS (not fully specified) [tested with carboxyl terminus OH, NH2, βA-OH, βA-NH2]” reads “identified”. Consider GSVYKA [short v-mos peptide], for which, in the series on anti-v-mos, the “affinity of anti-v-mos antibody” value was “negligible affinity”. Regarding “Fmoc-Trp-Tyr(OBu^t)-Phe-ONb-βAla-ACA-EDA-PepSyn K (WYFX; Fmoc, OBut, ONb-βAla-ACA-EDA-PepSyn K resin linkage) [peptide i]”, the cleavage products result in series [1] was “cleaved to a single product”. With “YGGFT (not fully specified) [tested with carboxyl terminus OH, NH2, βA-OH, βA-NH2]”, the “identification as ligand” value in the series on anti-β-endorphin MAb is listed as “identified”. For the compound PNNNH (also: bead-bound) [PNNNH-bead], the “reduction of NBT to dark blue diformazan” value in series [2] is on record as “capable of reducing NBT to a dark blue diformazan pigment”. For “YGGLQ (not fully specified) [tested with carboxyl terminus OH, NH2, βA-OH, βA-NH2]”, the “identification as ligand” value in the series with anti-β-endorphin MAb is listed as “identified”. Take `O=C(O)CCCC[C@@H]1SC[C@@H]2NC(=O)N[C@@H]21` [biotin]: the “effect on the staining of LHPQF-resin mimotope beads by streptavidin-alkaline phosphatase” value at streptavidin (FIG. 8, 100, 10, 1 and 0.1 nM biotin) is “concentration-dependent inhibitory effect”. Also, the “staining of the LHPQF-resin” value was “no effect” on streptavidin (biotin at 0.1 nM), “partially inhibited” on streptavidin (biotin at 1.0 nM), “partially inhibited” on streptavidin (biotin at 10 nM) and “completely blocked” on streptavidin (biotin at 100 nM). Consider “Gly-Phe-Gly-Ser-Val-Tyr-aminocaproic acid-β-Ala-resin [PAM resin/v-mos peptide beads]”, for which the “bead color after anti-v-mos antibody and labelled secondary antibody” value in series [3] is recorded as “turned dark green”.
